Source: patent US20030017497A1, “Peptide mimotopes of carbohydrate antigens” (priority 1998, published 2003)
“Also recorded” adds a separate entry of the source. Where two headings read alike, the source gives them in different places. Where no end group is shown, it is not given here.

Key:
[1] = system: anti-LeY monoclonal antibody BR55-2; test: ELISA reaction of MAb BR55-2 with peptides (MAP forms); type: binding; settings: for binding of peptide to BR55-2 in ELISA: monovalent peptide; for ELISA reactivity of BR55-2 with MAP peptide: MAP peptide forms
Protocol: (§1) FIGS. 2A and 2B depict the reactivity of putative motifs by ELISA. […] Constant amounts of BR55-2 were incubates with increasing amounts of MAP peptides, and then reaction of free mAb with LeY was measured by ELISA. Data points reflect 50% inhibition at 2 μg/ml of peptide inhibitor as measured by reduction of O.D. values in ELISA.
(§2) For example, polyclonal antibodies raised against the motif YYRYD might cross-react with MCP and with LeY. […] To further determine the extent of cross-reactivity for these motifs, peptides were synthesized repeating the respective putative centralized motifs shown in Table 2. It is theorized that the repeating tract should adopt a helix configuration which emulates many extended carbohydrate structures. To evaluate the antigenic mimicry of motif forms, we synthesized respective multiple antigen peptides (MAP) forms for detection of a reactivity pattern with the anti-LeY monoclonal antibodies BR55-2, and 15.6 (also referred to as BR15.6) and the anti-ganglioside antibody ME361 (FIG. 2a). Significant reactive sequences in FIG. 2a correspond to 3 peptides,
(§3) BR55-2 and 15.6A show distinct binding properties for LeY expressing tumor cells. […] The general mimicry of the K1106, K1105 and K1107 peptides for Le antigens is further assessed by ELISA reactivity with the anti-SA-LeX monoclonal antibody FH-6 (FIG. 3). These peptides are also reactive with this antibody. The significance of this reactivity is that previous reports indicate that peptides might only be reactive with antibodies that isolate them and in fact it is expected that peptide mimotopes might be not true mimics of carbohydrates.

[2] = system: anti-LeY monoclonal antibody 15.6 (BR15.6, 15.6A); test: ELISA reaction of MAb 15.6 (BR15-6A) with peptides; type: binding
Protocol: as §1, §2
(§4) BR55-2 and 15.6A show distinct binding properties for LeY expressing tumor cells. […] The general mimicry of the K1106, K1105 and K1107 peptides for Le antigens is further assessed by ELISA reactivity with the anti-SA-LeX monoclonal antibody FH-6 (FIG. 3). These peptides are also reactive with this antibody. […]

[3] = system: anti-ganglioside antibody ME361; test: ELISA reaction of MAb ME361 with MAP peptides; type: binding; settings: MAP peptide forms
Protocol: as §1, §2, §4

[4] = system: anti-SA-LeX monoclonal antibody FH-6; test: ELISA reactivity of peptides with antibody FH-6; type: binding
Text: FIG. 3 depicts the reactivity of the anti-sLex antibody FH-6 with MAP peptides.
as §3

[5] = system: BR55-2 binding to LeY-PAA; test: Inhibition of mAb BR55-2 binding to solid-phase LeY-PAA by soluble MAP peptides (ELISA); settings: 20 times molar excess of MAP peptide
Protocol: as §1, §3

[6] = system: MCF-7; test: Complement dependent cytotoxicity (CDC); type: cell-based, human
Text: (§5) Anti-carbohydrate antibodies may mediate complement dependent cytotoxicity (CDC) better than cytotoxicity associated with various effector cells. Subsequently, we have initially examined CDC mediation of various sera raised either to peptides or against the multivalent LeY-PAA form. […] We examined the ability of the sera to mediate complement dependent cytotoxicity (CDC) of the SKBR3 and MCF7 human breast adenocarcinoma cell lines, the ovarian tumor cell line OVAR-3 and the human melanoma lines WM793 and SKMEL-28 compared to that of the LeY-PAA generated sera. Positive control antibodies were BR55-2 which mediates CDC of the adenocarcinoma lines, and ME361 which mediates killing of WM793. Negative controls were pre-immune sera, an irrelevant peptide immunogen (C1) and two peptides (G1 and G2) isolated from phage display that are reactive with ME361.

[7] = system: OVAR-3; test: Complement dependent cytotoxicity (CDC); type: cell-based, human
Text: as §5

[8] = system: SKBR3; test: Complement dependent cytotoxicity (CDC); type: cell-based, human
Text: as §5

[9] = system: SKME1-28; test: Complement dependent cytotoxicity (CDC); type: cell-based, human
Text: as §5

[10] = system: WM793; test: Complement dependent cytotoxicity (CDC); type: cell-based, human
Text: as §5

[11] = system: HIV-1/3B isolate; test: HIV-1 cell free neutralization; type: cell-based; settings: Balb/c anti-peptide sera
Text: (§6) FIGS. 7A, 7B and 7C depict anti-peptide sera mediation of HIV-1 cell free neutralization.
(§7) Mannose, sialyl and histo-blood group related carbohydrate epitopes (particularly LeY) are found on the major envelope protein of the human immunodeficiency virus (HIV). Consequently, we examined the extent to which the anti-peptide sera could mediate HIV-1 cell free neutralization. We observed that sera from Balb/c and C57B1/6 mice immunized with P1 or P2, neutralized HIV-1/MN at final dilution's up to 1:64 (FIGS. 7a-c). FIG. 7a illustrates the neutralization of HIV-1/MN by anti-P1 and P2 sera from Balb/c mice. Normal human sera (NHS), as well as the anti-P3 sera, were ineffective at blocking syncytia formnation, whereas human α-HIV-1 sera from 4 different infected patients neutralize cell free virus at dilution's up to 1:64. Sera derived from C57B1/6 mice also followed this profile (FIG. 7b). The isolate specificity was further determined by cell free neutralization of the HIV-1/3B isolate (FIG. 7c).

[12] = system: HIV-1/MN; test: HIV-1 cell free neutralization (syncytia formation); type: cell-based; settings: anti-peptide sera
Text: as §6, §7

[13] = ELISA with various synthetic carbohydrate subunit probes; type: binding
Protocol: To further evaluate the specificity of the anti-carbohydrate IgG fraction derived from proteosome-conjugate immunized mice, ELISA assays were performed with plates coated with various synthetic carbohydrate subunit probes (FIG. 5a). […] It was observed that the anti-peptide sera (1:100 titer) was reactive with respective carbohydrate probes above background binding. Preferences for antisera against the YPY motif include Fucα1-3GlcNAc representative of LeY, and Lex, the H type 1 structure Fucα1-2Galβ1-3GlcNAc representative of Leb, and the disaccharide Galb1-4Glc which is a major constituent bacterial LOS. […] The antisera reacted with both H type 1 and H type 2 (Fucα1-2Galβ1-4GlcNAc) structures, with the type 1 structure displaying slightly more activity. This may reflect interaction with the common Fucα1-2Gal structure found on type 1 and type 2 structures or functional groups that are shared within the common topography of these two chains.
In contrast to the proteosome-peptide conjugates, increased specificity for LeY is observed for the MAP forms (FIG. 5b). At 1:50 dilution, the LeY reactivity of the antisera is approximately 3 fold more reactive with LeY than with Leb, Lex-pentasaccharide, SLea, SLex. […] Considering the diminished reactivity against LeX which shares the Galβ1→4(Fucα1→3)GlcNAcβ1 component it would appear that a fraction of antibodies react with a conformational component of LeY, providing for its increased reactivity, or alternatively, the affinity for LeY is increased.
To further evaluate the specificity of the 1104 peptide we synthesized 1104 as a MAP form and immunized Balb/c mice, with QS-21 as adjuvant and examined its reactivity pattern with various Le synthetic probes by ELISA (FIG. 9). The utility of MAP peptides is in their apparent advantage as immunogens. […] However, the MAPS described above contain T cell epitopes within the peptide sequence. […] We have observed this trend with MAP peptides.
At 1:50 serum dilution (FIG. 9), we observed about the same level of reduced reactivity for Leb hexasaccharide, LeX-pentasaccharide, sLeX, Lea, and sLea, while higher levels of reactivity are observed for LeY and LeY constituents. […] This selective interaction sets apart reactivities between Leb and LeY, since reactivity is observed for the H type 1 constituent of Leb.

[14] = ELISA reactivity of sera of peptide-immunized mice with LeY and Leb; type: in vivo, Balb/c mice; settings: anti-1104 MAP sera
Text: The immunological presentation of the putative motifs, (i.e. short or longer peptides, presentation in a helix or beta bend, monovalent or multivalent (clustered forms)) might mimic overlapping epitopes on otherwise different carbohydrate structures. To test this idea, Balb/c mice were immunized with peptide-proteosome conjugates representative of the motifs YYPYD (SEQ ID NO: 6), and YYRYD (SEQ ID NO: 7) or the same peptides as MAP forms that are multiple repeats of the motifs administered with QS-21. Sera were collected 1 week after the last immunization, pooled and tested for reactivity with LeY and Leb. […] Superposition of LeY and Leb structures indicate that despite the change of glycosidic linkage from β1-3 to β1-4 in the type 1 and 2 chains, resulting conformational features of the respective sugar moieties are still shared forming a common topography. The only effective difference is the position of the N-acetyl and hydroxymethyl groups projected on opposite sides of the type 1 and 2 difucosylated structures.
Sera derived from immunization with the MAP peptides indicate that the IgM isotype is the predominate form, titering out to 1:2000 for the two carbohydrate forms, but displaying significant differences in reactivity for LeY and Leb that are accentuated at 1:100 and 1:500 titer (FIG. 4b). […]

[15] = molecular target: anti-LeY monoclonal antibody BR55-2; test: competition ELISA: soluble MAP peptide against solid-phase LeY-PAA for BR55-2 (FIG. 2b)
[16] = MCF-7, sera raised to the immunogen, final dilution 1:15
[17] = OVAR-3, sera raised to the immunogen, final dilution 1:15
[18] = SKBR3, sera raised to the immunogen, final dilution 1:15
[19] = SKME1-28, sera raised to the immunogen, final dilution 1:15
[20] = WM793, sera raised to the immunogen, final dilution 1:15
[21] = anti-1104 MAP sera, 1:50 serum dilution

APWLYAP (Novel Sequence) [reference compound]
binding of peptide to BR55-2 in ELISA [1]: negative
ELISA reactivity of 15.6 / BR15-6A with peptide [2]: negative

APWLYGPA (Novel Sequence) [reference compound]
binding of peptide to BR55-2 in ELISA [1]: does not bind

GGGAPWLYGAPWLYGAPWLY [Peptide K61223, triple repeat of the APWLY motif]
ELISA reactivity of BR55-2 with MAP peptide [1]: not reactive; also recorded: little reactivity
ELISA reactivity of 15.6 / BR15-6A with peptide [2]: not reactive
ELISA reactivity (O.D.) of ME361 with MAP peptide [3]: not reactive

GGIYWRYDIYWRYDIYWRYD (Novel Sequence) [Peptide K61106]
ELISA reactivity of BR55-2 with MAP peptide [1]: bound very well
ELISA reactivity with FH-6 [4]: also reactive
inhibition of BR55-2 binding to LeY [5]: 50%

GGIYWRYDIYWRYDIYWRYD (Novel Sequence) [Peptide P2, elsewhere called YYRYD motif]
averaged percent cytotoxicity [6]: 29%
averaged percent cytotoxicity [7]: 84%
averaged percent cytotoxicity [8]: 80%
averaged percent cytotoxicity [9]: 13%
averaged percent cytotoxicity [10]: 9%
neutralization of HIV-1/3B infection in vitro [11]: effective in neutralizing

GGIYYPYDIYYPYDIYYPYD (Novel Sequence) [Peptide K61105]
ELISA reactivity of BR55-2 with MAP peptide [1]: reduces the recognition ability
ELISA reactivity with FH-6 [4]: also reactive

GGIYYPYDIYYPYDIYYPYD (Novel Sequence) [Peptide P1]
averaged percent cytotoxicity [6, 16]: 66%
averaged percent cytotoxicity [7, 17]: 89%
averaged percent cytotoxicity [8, 18]: 90%
averaged percent cytotoxicity [9, 19]: 10%
averaged percent cytotoxicity [10, 20]: 9%
neutralization of HIV-1/3B infection in vitro [11]: effective in neutralizing

GGIYYRYDIYYRYDIYYRYD (Novel Sequence) [Peptide P3]
averaged percent cytotoxicity [6]: 56%
averaged percent cytotoxicity [7]: 86%
averaged percent cytotoxicity [8]: 86%
averaged percent cytotoxicity [9]: 32%
averaged percent cytotoxicity [10]: 28%
blocking syncytia formation [12]: ineffective

GGYYRYDIYYRYDIYYRYD (Novel Sequence) [Peptide K61107]
ELISA reactivity of BR55-2 with MAP peptide [1]: bound very well
ELISA reactivity with FH-6 [4]: also reactive
inhibition of BR55-2 binding to LeY [5]: 50%
less reactivity with Lea and Sialyl-Lex ([13]; antisera to MAP, 1:50 dilution): about 1 fold

GVVWRYTAPVHLGDG [Peptide G1, GVVWRYTAPVHLGDG]
averaged percent cytotoxicity [6]: 20%
averaged percent cytotoxicity [7]: 9%
averaged percent cytotoxicity [8]: 10%
averaged percent cytotoxicity [9]: 75%
averaged percent cytotoxicity [10]: 90%

IMILLIFSLLWFGGA (Novel Sequence) [Peptide B1]
ELISA reactivity with FH-6 [4]: does not react
increase in reactivity for LeY over Leb [14]: three to fold increase
isotype of anti-peptide sera [14]: predominately of IgM isotype
serum reactivity with Fucal-3GlcNAc [13, 21]: best reactivity
serum reactivity with Fucα1-4GIcNAc [13, 21]: significantly reduced reactivity
serum reactivity with Galβ1-3Gal [13, 21]: Minimal binding
averaged percent cytotoxicity [6, 16]: 70%
averaged percent cytotoxicity [7, 17]: 85%
averaged percent cytotoxicity [8, 18]: 90%
averaged percent cytotoxicity [9, 19]: 10%
averaged percent cytotoxicity [10, 20]: 10%

LDVVLAWRDGLSGAS [Peptide G2, LDVVLAWRDGLSGAS]
averaged percent cytotoxicity [6]: 15%
averaged percent cytotoxicity [7]: 11%
averaged percent cytotoxicity [8]: 13%
averaged percent cytotoxicity [9]: 87%
averaged percent cytotoxicity [10]: 90%

GGIYWRYDIYWRYDIYWRYD (also: multiple antigen peptide (MAP) form, branches and core not given here) [K61106 MAP peptide …]
molar excess giving 50% inhibition (times molar excess) [15]: 20

GGYYRYDIYYRYDIYYRYD (also: multiple antigen peptide (MAP) form, branches and core not given here) [K61107 MAP peptide …]
molar excess giving 50% inhibition (times molar excess) [15]: 20
